Source: the supplement of paper PMC10307832

How the values were obtained:
Assay in all cases: relative viability (nuclei count vs DMSO), 5 days (fraction); higher = more cells survive
COR-L 105 = system: COR-L 105
Procedure, shortened: (§1)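 Relative viability is defined as nuclei in treated wells over nuclei in vehicle wells. Duplicate plates were run and medians reported. Lung cancer cell lines in 1536-well plates were dosed by pin tool one day after seeding, with one drug or with a fixed anchor-drug dose plus five library-drug doses (not always all listed) in √10 steps, and nuclei were counted after 5 days.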

COR-L23 = system: COR-L23
Procedure, shortened: as §1

EKVX = system: EKVX
Procedure, shortened: as §1

HARA = system: HARA
Procedure, shortened: as §1

HCC-15 = system: HCC-15
Procedure, shortened: as §1

HOP-62 = system: HOP-62
Procedure, shortened: as §1

NCI-H1355 = system: NCI-H1355
Procedure, shortened: as §1

NCI-H1395 = system: NCI-H1395
Procedure, shortened: as §1

NCI-H1734 = system: NCI-H1734
Procedure, shortened: as §1

NCI-H1755 = system: NCI-H1755
Procedure, shortened: as §1

NCI-H1793 = system: NCI-H1793
Procedure, shortened: as §1

NCI-H1993 = system: NCI-H1993
Procedure, shortened: as §1

NCI-H2009 = system: NCI-H2009
Procedure, shortened: as §1

NCI-H2170 = system: NCI-H2170
Procedure, shortened: as §1

NCI-H2228 = system: NCI-H2228
Procedure, shortened: as §1

NCI-H2342 = system: NCI-H2342
Procedure, shortened: as §1

NCI-H2347 = system: NCI-H2347
Procedure, shortened: as §1

NCI-H358 = system: NCI-H358
Procedure, shortened: as §1

NCI-H647 = system: NCI-H647
Procedure, shortened: as §1

NCI-H838 = system: NCI-H838
Procedure, shortened: as §1

PC-14 = system: PC-14
Procedure, shortened: as §1

SK-MES-1 = system: SK-MES-1
Procedure, shortened: as §1

UMC-11 = system: UMC-11
Procedure, shortened: as §1

Work on `C=C1C(=O)O[C@@H](CCCCCCCC)[C@@H]1C(=O)O` [C-75] + Cc1cc(Nc2cc(N3CCN(C)CC3)nc(Sc3ccc(NC(=O)C4CC4)cc3)n2)n[nH]1 [Tozasertib] (partner 0.1 µM) yielded a relative viability (COR-L 105; first compound 0.08 µM) of 0.366, a relative viability (COR-L 105; first compound 0.253 µM) of 0.167 and a relative viability (COR-L 105; first compound 0.8 µM) of 0.412. It also gave a relative viability (COR-L 105; first compound 2.53 µM) of 0.351, a relative viability (COR-L 105; first compound 8 µM) of 0.341 and a relative viability (COR-L23; first compound 0.08 µM) of 0.232. The relative viability (COR-L23; first compound 0.253 µM) was 0.267, the relative viability (COR-L23; first compound 0.8 µM) was 0.209 and the relative viability (COR-L23; first compound 2.53 µM) was 0.172. The relative viability (COR-L23; first compound 8 µM) was 0.179, the relative viability (EKVX; first compound 0.08 µM) was 0.42 and the relative viability (EKVX; first compound 0.253 µM) was 0.56. It also gave a relative viability (EKVX; first compound 0.8 µM) of 0.406, a relative viability (EKVX; first compound 8 µM) of 0.382 and a relative viability (HARA; first compound 0.08 µM) of 0.149. It also gave a relative viability (HARA; first compound 0.253 µM) of 0.0813, a relative viability (HARA; first compound 0.8 µM) of 0.112 and a relative viability (HARA; first compound 2.53 µM) of 0.0971. It also gave a relative viability (HARA; first compound 8 µM) of 0.145, a relative viability (HCC-15; first compound 0.08 µM) of 0.457 and a relative viability (HCC-15; first compound 0.253 µM) of 0.608. It also gave a relative viability (HCC-15; first compound 0.8 µM) of 0.407, a relative viability (HCC-15; first compound 2.53 µM) of 0.427 and a relative viability (HCC-15; first compound 8 µM) of 0.39. It also gave a relative viability (HOP-62; first compound 0.08 µM) of 0.373, a relative viability (HOP-62; first compound 0.253 µM) of 0.389 and a relative viability (HOP-62; first compound 0.8 µM) of 0.363. The relative viability (HOP-62; first compound 2.53 µM) was 0.385, the relative viability (HOP-62; first compound 8 µM) was 0.335 and the relative viability (NCI-H1355; first compound 0.08 µM) was 0.595. It also gave a relative viability (NCI-H1355; first compound 0.253 µM) of 0.579, a relative viability (NCI-H1355; first compound 0.8 µM) of 0.522 and a relative viability (NCI-H1355; first compound 2.53 µM) of 0.554. The relative viability (NCI-H1355; first compound 8 µM) was 0.517, the relative viability (NCI-H1395; first compound 0.08 µM) was 0.73 and the relative viability (NCI-H1395; first compound 0.253 µM) was 0.732. For the same compound, the relative viability (NCI-H1395; first compound 0.8 µM) was 0.803, the relative viability (NCI-H1395; first compound 2.53 µM) was 0.669 and the relative viability (NCI-H1395; first compound 8 µM) was 0.795. It also gave a relative viability (NCI-H1734; first compound 0.08 µM) of 0.286, a relative viability (NCI-H1734; first compound 0.253 µM) of 0.225 and a relative viability (NCI-H1734; first compound 0.8 µM) of 0.262. It also gave a relative viability (NCI-H1734; first compound 2.53 µM) of 0.198, a relative viability (NCI-H1734; first compound 8 µM) of 0.235 and a relative viability (NCI-H1755; first compound 0.08 µM) of 0.568. It also gave a relative viability (NCI-H1755; first compound 0.253 µM) of 0.638, a relative viability (NCI-H1755; first compound 0.8 µM) of 0.552 and a relative viability (NCI-H1755; first compound 2.53 µM) of 0.512. For the same compound, the relative viability (NCI-H1755; first compound 8 µM) was 0.572, the relative viability (NCI-H1793; first compound 0.08 µM) was 0.306 and the relative viability (NCI-H1793; first compound 0.253 µM) was 0.315. It also gave a relative viability (NCI-H1793; first compound 0.8 µM) of 0.344, a relative viability (NCI-H1793; first compound 2.53 µM) of 0.258 and a relative viability (NCI-H1793; first compound 8 µM) of 0.335. It also gave a relative viability (NCI-H1993; first compound 0.08 µM) of 0.611, a relative viability (NCI-H1993; first compound 0.253 µM) of 0.623 and a relative viability (NCI-H1993; first compound 0.8 µM) of 0.59. For the same compound, the relative viability (NCI-H1993; first compound 2.53 µM) was 0.495, the relative viability (NCI-H1993; first compound 8 µM) was 0.529 and the relative viability (NCI-H2009; first compound 0.08 µM) was 0.724. It also gave a relative viability (NCI-H2009; first compound 0.253 µM) of 0.743, a relative viability (NCI-H2009; first compound 0.8 µM) of 0.743 and a relative viability (NCI-H2009; first compound 2.53 µM) of 0.707. For the same compound, the relative viability (NCI-H2009; first compound 8 µM) was 0.691, the relative viability (NCI-H2170; first compound 0.08 µM) was 0.682 and the relative viability (NCI-H2170; first compound 0.253 µM) was 0.826. It also gave a relative viability (NCI-H2170; first compound 0.8 µM) of 0.796, a relative viability (NCI-H2170; first compound 2.53 µM) of 0.291 and a relative viability (NCI-H2170; first compound 8 µM) of 0.861. The relative viability (NCI-H2228; first compound 0.08 µM) was 0.29, the relative viability (NCI-H2228; first compound 0.253 µM) was 0.344 and the relative viability (NCI-H2228; first compound 0.8 µM) was 0.26. For the same compound, the relative viability (NCI-H2228; first compound 2.53 µM) was 0.25, the relative viability (NCI-H2228; first compound 8 µM) was 0.269 and the relative viability (NCI-H2342; first compound 0.08 µM) was 0.652. For the same compound, the relative viability (NCI-H2342; first compound 0.253 µM) was 0.503, the relative viability (NCI-H2342; first compound 0.8 µM) was 0.604 and the relative viability (NCI-H2342; first compound 2.53 µM) was 0.496. The relative viability (NCI-H2342; first compound 8 µM) was 0.472, the relative viability (NCI-H2347; first compound 0.08 µM) was 0.558 and the relative viability (NCI-H2347; first compound 0.253 µM) was 0.74. For the same compound, the relative viability (NCI-H2347; first compound 0.8 µM) was 0.517, the relative viability (NCI-H2347; first compound 8 µM) was 0.534 and the relative viability (NCI-H358; first compound 0.08 µM) was 0.0979. The relative viability (NCI-H358; first compound 0.253 µM) was 0.104, the relative viability (NCI-H358; first compound 0.8 µM) was 0.104 and the relative viability (NCI-H358; first compound 2.53 µM) was 0.0847. For the same compound, the relative viability (NCI-H358; first compound 8 µM) was 0.103, the relative viability (NCI-H647; first compound 0.08 µM) was 0.24 and the relative viability (NCI-H647; first compound 0.253 µM) was 0.365. The relative viability (NCI-H647; first compound 0.8 µM) was 0.211, the relative viability (NCI-H647; first compound 2.53 µM) was 0.457 and the relative viability (NCI-H647; first compound 8 µM) was 0.233. For the same compound, the relative viability (NCI-H838; first compound 0.08 µM) was 0.311, the relative viability (NCI-H838; first compound 0.8 µM) was 0.229 and the relative viability (NCI-H838; first compound 2.53 µM) was 0.293. For the same compound, the relative viability (NCI-H838; first compound 8 µM) was 0.266, the relative viability (PC-14; first compound 0.08 µM) was 0.597 and the relative viability (PC-14; first compound 0.253 µM) was 0.479. It also gave a relative viability (PC-14; first compound 0.8 µM) of 0.548, a relative viability (PC-14; first compound 2.53 µM) of 0.544 and a relative viability (PC-14; first compound 8 µM) of 0.578. The relative viability (SK-MES-1; first compound 0.08 µM) was 0.924, the relative viability (SK-MES-1; first compound 0.253 µM) was 0.989 and the relative viability (SK-MES-1; first compound 0.8 µM) was 0.823. For the same compound, the relative viability (SK-MES-1; first compound 2.53 µM) was 0.863, the relative viability (SK-MES-1; first compound 8 µM) was 0.898 and the relative viability (UMC-11; first compound 0.08 µM) was 0.213. It also gave a relative viability (UMC-11; first compound 0.253 µM) of 0.202, a relative viability (UMC-11; first compound 0.8 µM) of 0.209 and a relative viability (UMC-11; first compound 2.53 µM) of 0.161. The relative viability (UMC-11; first compound 8 µM) was 0.227.
